Measured values from US20240383882A1 (Ecstasy LLC, priority 2020, published 2024).
Read-outs that look alike come from different tables or passages of the source.

Test system: male C57BL/6 mice
Assay: 55° C. warm-water tail-flick test (antinociception)
Format: in vivo
Settings: Mus musculus
Method: Antinociception was assessed using the 55° C. warm-water tail-flick test. The latency to the first sign of a rapid tail flick was taken as the behavioral endpoint. Each mouse was first tested for baseline latency by immersing its tail in the water and recording the time to response. Mice not responding within 2 secs were excluded from further testing. Responsive mice were then s.c. administered the test compound and tested for antinociception at 30 min, 60 min, 90 min, and 120 min time points afterward. Antinociception was calculated using the following formula: percentage of antinociception=100×(test latency−control latency)/(20−control latency).
The following new compounds were also made and tested to determine the half maximal possible effective dose, or ED50 (mg/kg), in mice, using one of: the warm water tail-flick test as in Table II, spared nerve injury, chronic constriction injury, or Complete Freund's adjuvant induced inflammatory pain. The symbols in the last column are: + indicates ED 50>50 mg/kg; ++ indicates ED 50 is less than or equal to 30 mg/kg.

[1] = half maximal effective dose in mice, using one of: warm water tail-flick test, spared nerve injury, chronic constriction injury, or Complete Freund's adjuvant induced inflammatory pain (not stated which per compound), read-out: Biological Activity (ED50)

Q: Which ED50 [1] does the source give for CC(C)(c1ccccn1)N1CC[C@@](CCc2ccc(C#N)cc2)(c2ncc[nH]2)C1 [Compound 107, (R)-4-(2-(3-(1H-imidazol-2-yl)-1-(2-(pyridin-2-yl)propan-2-yl)pyrrolidin-3-yl)ethyl) benzonitrile] here?
A: > 50 mg/kg

Q: Which ED50 [1] does the source give for CC(C)(c1ccc(S(C)(=O)=O)cc1)N1CC[C@](CO)(CCc2ccc(F)cc2)C1 [Compound 36, (R)-(3-(4-fluorophenethyl)-1-(2-(4-(methylsulfonyl)phenyl)propan-2-yl)pyrrolidin-3-yl)methanol] here?
A: > 50 mg/kg

Q: CC(C)(c1ccccn1)N1CC[C@@](CCc2ccc(C#N)cn2)(COCc2ccccc2)C1 [Compound 113, (R)-6-(2-(3-((benzyloxy)methyl)-1-(2-(pyridin-2-yl)propan-2-yl)pyrrolidin-3-yl)ethyl) nicotinonitrile] was tested. Which ED50 [1] did it give?
A: > 50 mg/kg

Q: Which ED50 [1] does the source give for CC(C)(c1ccccn1)N1CC[C@@](CCc2ccc3nonc3c2)(CS(C)(=O)=O)C1 [Compound 169, (R)-5-(2-(3-((methylsulfonyl)methyl)-1-(2-(pyridin-2-yl)propan-2-yl)pyrrolidin-3-yl)ethyl)benzo[c] [1,2,5]oxadiazole] here?
A: > 50 mg/kg

Q: How did the ED50 (sc, 0.5 h, compounds of Table I, s.c., 30 min, 55° C. water, configuration tested as in Table II, read-out: ED50 (mg/kg) at 30 min on C57BL/6 mice in Warm-water Tail-flick Test) turn out when OCC1(CCc2ccc(F)cc2)CCN(Cc2cccnc2)C1 (single isomer, unassigned) [Compound 44] was run?
A: ≤ 30 mg/kg

Q: For CC(C)(c1ccccc1)N1CC[C@](CCc2ccc(S(C)(=O)=O)cc2)([C@@H](O)C(F)(F)F)C1 [Compound 212, (R)-2,2,2-trifluoro-1-((S)-3-(4-(methylsulfonyl)phenethyl)-1-(2-phenylpropan-2-yl)pyrrolidin-3-yl)ethan-1-ol], which ED50 [1] is on record?
A: ≤ 30 mg/kg

Q: How did the ED50 [1] turn out when CC(C)(c1ccccn1)N1CC[C@@](CCc2ccc(C#N)cc2)(C(=O)NC2(C#N)COC2)C1 [Compound 208, (R)-N-(3-cyanooxetan-3-yl)-3-(4-cyanophenethyl)-1-(2-(pyridin-2-yl)propan-2-yl)pyrrolidine-3-carboxamide] was run?
A: ≤ 30 mg/kg

Q: Cc1ccc(C(C)(C)N2CC[C@@](CCc3ccc(C#N)cc3)(COS(C)=O)C2)cn1 (stereo partly drawn) [Compound 20, ((R)-3-(4-cyanophenethyl)-1-(2-(6-methylpyridin-3-yl)propan-2-yl)pyrrolidin-3-yl)methyl methanesulfinate] was tested. Which ED50 [1] did it give?
A: ≤ 30 mg/kg

Q: Which ED50 [1] does the source give for CC(C)(c1ccccn1)N1CC[C@](CO)(CCc2ccc(F)cc2)C1 [Compound 215, (R)-(3-(4-fluorophenethyl)-1-(2-(pyridin-2-yl)propan-2-yl)pyrrolidin-3-yl)methanol] here?
A: > 50 mg/kg

Q: CSc1ccc(C(C)(C)N2CC[C@@](CCc3ccc(F)cc3)(COCc3ccccc3)C2)cc1 [Compound 40, (R)-3-((benzyloxy)methyl)-3-(4-fluorophenethyl)-1-(2-(4-(methylthio)phenyl)propan-2-yl)pyrrolidine] was tested. Which ED50 [1] did it give?
A: > 50 mg/kg

Q: With N#Cc1ccc(CC[C@]2(C3CCO3)CCN(Cc3cccnc3)C2)cc1 (single isomer, unassigned) [Compound 21, 4-(2-((S)-3-((R or S)-oxetan-2-yl)-1-(pyridin-3-ylmethyl)pyrrolidin-3-yl)ethyl) benzonitrile] as the molecule, how does the ED50 [1] read?
A: > 50 mg/kg

Q: CC(C)(c1ccccn1)N1CC[C@@](CCc2ccc3nonc3c2)(COCc2ccccc2)C1 [Compound 163, (R)-5-(2-(3-((benzyloxy)methyl)-1-(2-(pyridin-2-yl)propan-2-yl)pyrrolidin-3-yl)ethyl)benzo[c] [1,2,5]oxadiazole] was tested. Which ED50 [1] did it give?
A: > 50 mg/kg

Q: How did the ED50 [1] turn out when CC(C)(c1ccccn1)N1CC[C@@](CCc2ccc(C#N)cc2)(C(C)(C)O)C1 [(R)-4-(2-(3-(2-hydroxypropan-2-yl)-1-(2-(pyridin-2-yl)propan-2-yl)pyrrolidin-3-yl)ethyl) benzonitrile] was run?
A: > 50 mg/kg

Q: How did the ED50 [1] turn out when CC(C)(c1ccccn1)N1CC[C@@](CCc2ccc(C#N)cc2F)(C(O)C(F)(F)F)C1 (single isomer, unassigned) [Compound 116, 3-fluoro-4-(2-((R)-1-(2-(pyridin-2-yl)propan-2-yl)-3-((R or S)-2,2,2-trifluoro-1-hydroxyethyl)pyrrolidin-3-yl)ethyl) benzonitrile] was run?
A: > 50 mg/kg
